The subject of this assay is CFA induced hypersensitivity in rat. Nature of the assay: CFA induced hypersensitivity in rat assessed using weight bearing method. It is filed as in vivo. To be noted: 10 mg/kg, 24 hours post CFA, 1, 2 and 4 hours post treatment. The source says:
Intraplantar injection of Complete Freunds adjuvant (CFA) causes an inflammatory reaction which induces hypersensitivity and oedema, and mimics some aspects of clinical inflammatory pain. These effects can be investigated using equipment to measure weight bearing and plethysmometer.
Naive rats distribute their body weight equally between the two hind paws. However, when the injected (left) hind paw is inflamed and/or painful, the weight is re-distributed so that less weight is put on the affected paw (decrease in weight bearing on injured paw). Weight bearing through each hind limb was measured using a rat incapacitance tester (Linton Instruments, UK).
Rats were placed in the incapacitance tester with the hind paws on separate sensors and the average force exerted by both hind limbs was recorded over 4 seconds.
Base line weight bearing and paw volume readings were taken and hypersensitivity was induced via injection of CFA (Baseline weight bearing and paw volume recordings were taken prior to induction of insult. Inflammatory hypersensitivity was induced by intraplantar injection of CFA (100 μL of 1 mg/mL solution) intraplantar to the rats left hind paw.
Animals (Male, Sprague Dawley Rats (Charles River, UK), 212-260 g) were ranked and randomised to treatment groups according to the weight bearing CFA window in a Latin square design. […]

One molecule from patent publication US11136325B2, “Pyrrolopyrimidine and pyrrolopyridine derivatives” (GALAPAGOS NV, priority 2017, dated 2021) can be followed below.

For the molecule `COc1ccc2c(c1)c(CC(=O)O)c(C)n2C(=O)c1ccc(Cl)cc1` [Indomethacin, reference compound], the “hypersensitivity response (weight bearing)” value is given as “significantly inhibited”.
